The test system of one assay is Pseudomonas aeruginosa. Particulars: mixed-species biofilms grown 22 hours, 20 hours of treatment. The method, then:
(§1) Several CSA compounds were tested against Pseudomonas aeruginosa and Staphylococcus aureus mixed-species biofilms grown for an initial 22 hours and subjected to 20 hours of treatment.

The next assay relates to Staphylococcus aureus. To be noted: mixed-species biofilms grown 22 hours, 20 hours of treatment. The method, then: as §1

The record followed here is patent publication US20180272034A1, “USE OF CSA COMPOUNDS TO PREVENT MICROBIAL BUILD-UP OR FOULING OF MEDICAL IMPLANTS” (BRIGHAM YOUNG UNIVERSITY, priority 2017, published 2018).

≈ marks a conversion by molar mass, not a printed value.

With `CC[C@H](C)[C@H](NC(=O)[C@H](CCCCN)NC(=O)[C@H](CCC(=O)O)NC(=O)[C@H](CCCCN)NC(=O)[C@H](CO)NC(=O)[C@H](CCCCN)NC(=O)[C@H](CCCNC(=N)N)NC(=O)[C@H](Cc1ccccc1)NC(=O)[C@H](Cc1ccccc1)NC(=O)[C@H](CC(=O)O)NC(=O)CNC(=O)[C@H](CC(C)C)NC(=O)[C@@H](N)CC(C)C)C(=O)NCC(=O)N[C@@H](CCCCN)C(=O)N[C@@H](CCC(=O)O)C(=O)N[C@@H](Cc1ccccc1)C(=O)N[C@@H](CCCCN)C(=O)N[C@@H](CCCNC(=N)N)C(=O)N[C@H](C(=O)N[C@H](C(=O)N[C@@H](CCC(N)=O)C(=O)N[C@@H](CCCNC(=N)N)C(=O)N[C@H](C(=O)N[C@@H](CCCCN)C(=O)N[C@@H](CC(=O)O)C(=O)N[C@@H](Cc1ccccc1)C(=O)N[C@@H](CC(C)C)C(=O)N[C@@H](CCCNC(=N)N)C(=O)N[C@@H](CC(N)=O)C(=O)N[C@@H](CC(C)C)C(=O)N[C@H](C(=O)N1CCC[C@H]1C(=O)N[C@@H](CCCNC(=N)N)C(=O)N[C@H](C(=O)N[C@@H](CCC(=O)O)C(=O)N[C@@H](CO)C(=O)O)[C@@H](C)O)C(C)C)[C@@H](C)CC)C(C)C)[C@@H](C)CC` [LL-37, reference compound], in the assay on Pseudomonas aeruginosa, the “MBC P. aeruginosa” value was greater than 200 µg/mL and the “MIC P. aeruginosa” value is greater than 200 µg/mL. In addition, in the assay on Staphylococcus aureus, the “MBC S. aureus” value is greater than 200 µg/mL and the “MIC S. aureus” value was greater than 200 µg/mL.

`CC(O)C1CCC2C3C(OCCCN)CC4CC(OCCCN)CCC4(C)C3CC(OCCCN)C12C.Cl.Cl.Cl` (mixture of isomers) [CSA-11]: in the assay with Pseudomonas aeruginosa, the “MBC P. aeruginosa” value was greater than 200 µg/mL and the “MIC P. aeruginosa” value was greater than 200 µg/mL. Further, in the assay on Staphylococcus aureus, the “MBC S. aureus” value worked out at 50 µg/mL and the “MIC S. aureus” value is 50 µg/mL.

Regarding `CCCCCCCCCCOC(=O)CCC(C)C1CCC2C3C(OC(=O)CCN)CC4CC(OC(=O)CCN)CCC4(C)C3CC(OC(=O)CCN)C12C.Cl.Cl.Cl` (centres unmarked) [CSA-144], in the assay on Pseudomonas aeruginosa, the “MBC P. aeruginosa” value is 50 µg/mL and the “MIC P. aeruginosa” value amounted to 12.5 µg/mL. In the assay with Staphylococcus aureus, the “MBC S. aureus” value came to 3.125 µg/mL and the “MIC S. aureus” value stood at 3.125 µg/mL.

With `CCCCCCCCNCCC[C@@H](C)[C@H]1CC[C@H]2[C@@H]3[C@H](OCCCN)C[C@@H]4C[C@H](OCCCN)CC[C@]4(C)[C@H]3C[C@H](OCCCN)[C@]12C` [CSA-13], in the assay with Pseudomonas aeruginosa, the “MBC P. aeruginosa” value stood at 6.25 µg/mL (≈ 9.23 µM) and the “MIC P. aeruginosa” value is 3.125 µg/mL (≈ 4.62 µM). In the assay with Staphylococcus aureus, the “MBC S. aureus” value was 0.78 µg/mL (≈ 1.15 µM) and the “MIC S. aureus” value was found to be 0.78 µg/mL (≈ 1.15 µM).

`CCCCCCCCCOC(=O)CCC(C)C1CCC2C3C(OC(=O)CCN)CC4CC(OC(=O)CCN)CCC4(C)C3CC(OC(=O)CCN)C12C.Cl.Cl.Cl` (centres unmarked) [CSA-145]: in the assay on Pseudomonas aeruginosa, the “MBC P. aeruginosa” value was found to be 50 µg/mL and the “MIC P. aeruginosa” value was found to be 12.5 µg/mL. In addition, in the assay on Staphylococcus aureus, the “MBC S. aureus” value was found to be 3.125 µg/mL and the “MIC S. aureus” value is 3.125 µg/mL.

In the case of `CCCCCCOC(=O)CCC(C)C1CCC2C3C(OC(=O)CCN)CC4CC(OC(=O)CCN)CCC4(C)C3CC(OC(=O)CCN)C12C.Cl.Cl.Cl` (centres unmarked) [CSA-142], in the assay on Pseudomonas aeruginosa, the “MBC P. aeruginosa” value turned out to be 3.125 µg/mL and the “MIC P. aeruginosa” value turned out to be 3.125 µg/mL. For the same compound, in the assay with Staphylococcus aureus, the “MBC S. aureus” value was 3.125 µg/mL and the “MIC S. aureus” value turned out to be 3.125 µg/mL.

Take `C[C@H](CCCNCCCNCCCN)[C@H]1CC[C@H]2[C@@H]3[C@H](OCCCN)C[C@@H]4C[C@H](OCCCN)CC[C@]4(C)[C@H]3C[C@H](OCCCN)[C@]12C.Cl.Cl.Cl.Cl.Cl.Cl` [CSA-54]: in the assay on Pseudomonas aeruginosa, the “MBC P. aeruginosa” value came to 100 µg/mL and the “MIC P. aeruginosa” value stood at 50 µg/mL. Further, in the assay with Staphylococcus aureus, the “MBC S. aureus” value came to 25 µg/mL and the “MIC S. aureus” value was determined as 6.25 µg/mL.

Regarding `CCCCCCCCNC(=O)CCC(C)C1CCC2C3C(OCCCN)CC4CC(OCCCN)CCC4(C)C3CC(OCCCN)C12C.Cl.Cl.Cl` (centres unmarked) [CSA-192], in the assay on Pseudomonas aeruginosa, the “MBC P. aeruginosa” value came out at 6.25 µg/mL and the “MIC P. aeruginosa” value is 3.125 µg/mL. Moreover, in the assay on Staphylococcus aureus, the “MBC S. aureus” value is 1.56 µg/mL and the “MIC S. aureus” value turned out to be 0.78 µg/mL.
